20 compounds from patent US20110092547A1 (priority 2007, published 2011) can be followed below.

The test has as its target T1, human DGAT1 (Homo sapiens, UniProt O75907).
T1 construct: made in house; host or cells: Sf9 insect cells (recombinant baculovirus); membrane fraction
T1 sequence (O75907 1-488): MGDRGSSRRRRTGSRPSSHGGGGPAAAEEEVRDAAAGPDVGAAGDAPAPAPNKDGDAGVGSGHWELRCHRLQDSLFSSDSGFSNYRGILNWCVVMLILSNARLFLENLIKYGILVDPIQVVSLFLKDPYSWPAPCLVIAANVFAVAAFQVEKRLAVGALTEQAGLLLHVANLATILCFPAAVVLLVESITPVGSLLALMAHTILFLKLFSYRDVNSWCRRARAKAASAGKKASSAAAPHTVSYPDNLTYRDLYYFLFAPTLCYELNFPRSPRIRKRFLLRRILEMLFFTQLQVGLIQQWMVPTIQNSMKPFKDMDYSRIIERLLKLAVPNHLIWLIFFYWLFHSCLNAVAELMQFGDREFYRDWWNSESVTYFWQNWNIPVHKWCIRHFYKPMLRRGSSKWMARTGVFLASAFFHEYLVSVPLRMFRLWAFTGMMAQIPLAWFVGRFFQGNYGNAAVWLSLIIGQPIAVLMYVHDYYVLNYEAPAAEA
In words: Human enzyme assay, further developed assay (14C oleoyl CoA, 96 well plate). In kind it is biochemical. As to conditions: human DGAT1 expressed in insect cell (sf9) membranes. The procedure: The in vitro assay to identify DGAT1 inhibitors uses human DGAT1 expressed in insect cell membranes as the enzyme source (Proc. Natl. Acad. Sci. 1998, 95, 13018-13023). Briefly, sf9 cells were infected with recombinant baculovirus containing human DGAT1 coding sequences and harvested after 48 h. Cells were lysed by sonication and membranes isolated by centrifuging at 28000 rpm for 1 h at 4° C. on a 41% sucrose gradient. The membrane fraction at the interphase was collected, washed, and stored in liquid nitrogen.
In a further developed assay, DGAT1 activity was assayed by a modification of the method described by Coleman (Methods in Enzymology 1992, 209, 98-102). Compound at 0.00003-10 μM (final cone) was incubated with 25 μg/ml (final cone) membrane protein, 5 mM MgCl2, and 100 μM 1,2 dioleoyl-sn-glycerol in a total assay volume of 200 μl in a 96 well plate. The reaction was started by adding ^14C oleoyl coenzyme A (30 μM final concentration) and incubated at room temperature for 30 minutes. The reaction was stopped by adding 300 μl 2-propanol:heptane 7:1. Radioactive triolein product was separated into the organic phase by adding 200 μl heptane and 200 μl 0.1 M carbonate buffer pH 9.5. DGAT1 activity was quantified by counting aliquots of the upper heptane layer by liquid scintillography.
As to `O=C(Nc1ccc(O[C@H]2CC[C@H](C(=O)O)CC2)nc1)c1nnc(Nc2cccc(Cl)c2)o1` [Example 27, (1r,4r)-4-(5-(5-(3-chloro-phenylamino)-1,3,4-oxadiazole-2-carboxamido)pyridin-2-yloxy)cyclo-hexane-carboxylic acid], half-maximal inhibition (IC50) was put at 19 nM.
As for `CC1(C(=O)O)CCC(Oc2ccc(NC(=O)c3nnc(Nc4ccc(F)c(Cl)c4)o3)cn2)CC1` (mixture of isomers) [Example 69, 4-(5-(5-(3-Chloro-4-fluorophenylamino)-1,3,4-oxadiazole-2-carboxamido)pyridin-2-yloxy)-1-methylcyclohexanecarboxylic acid], the IC50 is 4.3 nM. Against the preceding compound, the IC50 is about 4.4-fold lower.
Then `Cc1cc(NC(=O)c2nnc(Nc3cccc(Cl)c3)o2)cnc1O[C@H]1CC[C@@H](C(=O)O)CC1` [Example 18, (1s,4s)-4-(5-(5-(3-chlorophenylamino)-1,3,4-oxadiazole-2-carboxamido)-3-methylpyridin-2-yloxy)cyclohexanecarboxylic acid], with 21 nM; and `O=C(Nc1cnc(O[C@H]2CC[C@@H](C(=O)O)CC2)c(F)c1)c1nnc(Nc2ccc(F)c(Cl)c2)o1` [Example 61, (1s,4s)-4-(5-(5-(3-Chloro-4-fluorophenylamino)-1,3,4-oxadiazole-2-carboxamido)-3-fluoropyridin-2-yloxy)cyclohexanecarboxylic acid], with 19 nM; and `O=C(Nc1ccc(O[C@H]2CC[C@@H](C(=O)O)CC2)nc1)c1nnc(Nc2ccc(Br)cc2Cl)o1` [Example 13, (1s,4s)-4-(5-(5-(4-bromo-2-chlorophenylamino)-1,3,4-oxadiazole-2-carboxamido)pyridin-2-yloxy)cyclohexanecarboxylic acid], with 11 nM.
Then `O=C(Nc1ccc(O[C@H]2CC[C@H](C(=O)O)CC2)nc1)c1nnc(Nc2ccc(F)c(F)c2)o1` [Example 32, (1r,4r)-4-(5-(5-(3,4-difluoro-phenylamino)-1,3,4-oxadiazole-2-carboxamido)pyridin-2-yloxy)cyclo-hexane-carboxylic acid], with 26 nM.
Under `O=C(Nc1ccc(OC2CCC(C(=O)O)CC2)nc1)c1nnc(Nc2ccc(OC(F)F)cc2)o1` (centres unmarked) [Example 21, 4-[(5-{[(5-{[4-(difluoromethoxy)phenyl]amino}-1,3,4-oxadiazol-2-yl)carbonyl]amino}pyridin-2-yl)oxy]cyclohexanecarboxylic acid] stands 11 nM; under `O=C(Nc1ccc(O[C@H]2CC[C@H](C(=O)O)CC2)nc1)c1nnc(Nc2ccc(OC(F)(F)F)cc2)o1` [Example 25, (1r,4r)-4-(5-(5-(4-(trifluoro-methoxy)phenylamino)-1,3,4-oxadiazole-2-carboxamido)pyridin-2-yloxy)cyclo-hexane-carboxylic acid], 52 nM.
Compound `O=C(Nc1ccc(O[C@H]2CC[C@@H](C(=O)O)CC2)nc1)c1nnc(Nc2ccc(OC(F)(F)F)cc2)o1` [Example 11, (1s,4s)-4-(5-(5-(4-(trifluoromethoxy)phenylamino)-1,3,4-oxadiazole-2-carboxamido)pyridin-2-yloxy)cyclohexanecarboxylic acid] showed an IC50 of 7.2 nM.
Under `O=C(O)C[C@H]1CC[C@H](Oc2ccc(NC(=O)c3nnc(Nc4ccc(F)c(F)c4)o3)cn2)CC1` [Example 37, 2-((1r,4r)-4-(5-(5-(3,4-difluorophenylamino)-1,3,4-oxadiazole-2-carboxamido)pyridin-2-yloxy)cyclohexyl)acetic acid] stands 18 nM.
Then `O=C(O)C[C@H]1CC[C@@H](Oc2ccc(NC(=O)c3nnc(Nc4ccc(F)c(F)c4)o3)cn2)CC1` [Example 36, 2-((1s,4s)-4-(5-(5-(3,4-difluorophenylamino)-1,3,4-oxadiazole-2-carboxamido)pyridin-2-yloxy)cyclohexyl)acetic acid], with 9.6 nM.
Then `O=C(Nc1ccc(O[C@H]2CC[C@@H](C(=O)O)CC2)nc1)c1nnc(Nc2cccc(Cl)c2Cl)o1` [Example 14, (1s,4s)-4-(5-(5-(2,3-dichlorophenylamino)-1,3,4-oxadiazole-2-carboxamido)pyridin-2-yloxy)cyclohexanecarboxylic acid], with 11 nM.
Compound `Cc1cc(NC(=O)c2nnc(Nc3ccc(F)c(F)c3)o2)cnc1O[C@H]1CC[C@@H](C(=O)O)CC1` [Example 17, (1s,4s)-4-(5-(5-(3,4-difluorophenylamino)-1,3,4-oxadiazole-2-carboxamido)-3-methylpyridin-2-yloxy)cyclohexanecarboxylic acid] yielded an IC50 of 27 nM.
Then `Cc1cc(OC2CCC(C(=O)O)CC2)ncc1NC(=O)c1nnc(Nc2ccc(Cl)c(F)c2)o1` (centres unmarked) [Example 42, (1s,4s)-4-(5-(5-(4 - Chloro-3-fluorophenylamino)-1,3,4-oxadiazole-2-carboxamido)-4-methylpyridin-2-yloxy) cyclohexanecarboxylic acid], with 1.1 nM; and `O=C(Nc1ccc(OC2CCC(C(=O)O)CC2)nc1)c1nnc(Nc2cc(F)c(F)cc2F)o1` (centres unmarked) [Example 19, 4-({5-[({5-[(2,4,5-trifluorophenyl)amino]-1,3,4-oxadiazol-2-yl}carbonyl)amino]pyridin-2-yl}oxy)cyclohexanecarboxylic acid], with 12 nM; and `O=C(Nc1ccc(OC2CCC(C(=O)O)CC2)nc1)c1nnc(Nc2ccc(F)cc2)o1` (centres unmarked) [Example 20, 4-4-({5-[({5-[(4-fluorophenyl)amino]-1,3,4-oxadiazol-2-yl}-carbonyl)amino]pyridin-2-yl}oxy)cyclohexanecarboxylic acid], with 9.8 nM.
Then `COc1nc(O[C@H]2CC[C@@H](C(=O)O)CC2)ccc1NC(=O)c1nnc(Nc2ccc(F)c(F)c2)o1` [Example 51, (1s,4s)-4-(5-(5-(3,4-Difluorophenylamino)-1,3,4-oxadiazole-2-carboxamido)-6-methoxypyridin-2-yloxy)cyclohexanecarboxylic acid], with 29 nM.
`O=C(Nc1ccc(O[C@@H]2CC[C@@H](C(=O)O)C2)nc1)c1nnc(Nc2ccc(F)c(F)c2)o1` [Example 49, (1R,3R)-3-(5-(5-(3,4-Difluorophenylamino)-1,3,4-oxadiazole-2-carboxamido)pyridin-2-yloxy)cyclopentanecarboxylic acid] returned an IC50 of 18 nM.
As to `CS(=O)(=O)NC(=O)[C@H]1CC[C@@H](Oc2ccc(NC(=O)c3nnc(Nc4ccc(F)c(F)c4)o3)cn2)CC1` [Example 45, 5-(3,4-Difluorophenylamino)-N-(6-((1s,4s)-4-(methylsulfonylcarbamoyl)cyclohexyloxy)pyridin-3-yl)-1,3,4-oxadiazole-2-carboxamide], inhibition was half-maximal at 6.4 nM (IC50).
Under `O=C(O)c1ccc(Oc2ccc(NC(=O)c3nnc(Nc4ccc(F)c(F)c4)o3)cn2)cc1` [Example 38, 4-(5-(5-(3,4-Difluorophenylamino)-1,3,4-oxadiazole-2-carboxamido)-Pyridin-2-yloxy)benzoic acid] stands 5.4 nM.

Usually IC50 stands for the point on the concentration scale where inhibition reaches its midpoint. Low values mean greater potency, high ones weaker potency.
